test: In vitro inhibition of Hematopoietic protein-tyrosine phosphatase using p-nitrophenyl phosphate as substrate.

| SMILES | IC50 [µM] |
| --- | --- |
| CCCCCCC(NC(=O)c1ccc(/C=C/C(=O)O)cc1)C(=O)NCc1ccccc1 (stereo not drawn) | 6 |
| CCCCNC(=O)C(NC(=O)c1ccc(/C=C/C(=O)O)cc1)c1ccccc1 (stereo not drawn) | 6.7 |
| CC(C)(C)NC(=O)C(NC(=O)c1ccc(/C=C/C(=O)O)cc1)c1ccccc1 (stereo not drawn) | 4 |
| O=C(O)/C=C/c1ccc(C(=O)NC(C(=O)NC2CCCCC2)c2ccccc2)cc1 (stereo not drawn) | 6.2 |
| CCCCCCC(NC(=O)c1ccc(/C=C/C(=O)O)cc1)C(=O)NCC(=O)OC (stereo not drawn) | 7.2 |
| CCCC(NC(=O)c1ccc(/C=C/C(=O)O)cc1)C(=O)NCc1ccccc1 (stereo not drawn) | 6.1 |
| CC(NC(=O)c1ccc(/C=C/C(=O)O)cc1)C(=O)NCc1ccccc1 (stereo not drawn) | 7.2 |

The remaining lines, values ahead:

| IC50 [µM] | SMILES |
| --- | --- |
| 20.2 | COC(=O)CNC(=O)C(NC(=O)c1ccc(/C=C/C(=O)O)cc1)c1ccccc1 (stereo not drawn) |
| 10.4 | O=C(O)/C=C/c1ccc(C(=O)NC(C(=O)NCC(=O)O)c2ccccc2)cc1 (stereo not drawn) |
| 3.9 | O=C(O)/C=C/c1ccc(C(=O)NC(C(=O)NCc2ccccc2)c2ccccc2)cc1 (stereo not drawn) |
| 9 | CCCCCCC(NC(=O)c1ccc(/C=C/C(=O)O)cc1)C(=O)NCCCC (stereo not drawn) |
| 7.5 | CCCCCCC(NC(=O)c1ccc(/C=C/C(=O)O)cc1)C(=O)NC(C)(C)C (stereo not drawn) |
| 10 | CCCCCCC(NC(=O)c1ccc(/C=C/C(=O)O)cc1)C(=O)NCC(=O)OCC (stereo not drawn) |
| 9.6 | CCOC(=O)CNC(=O)C(NC(=O)c1ccc(/C=C/C(=O)O)cc1)c1ccccc1 (stereo not drawn) |
| 9 | CCCCCCC(NC(=O)c1ccc(/C=C/C(=O)O)cc1)C(=O)NC1CCCCC1 (stereo not drawn) |
| 7.5 | CCCCCCC(NC(=O)c1ccc(/C=C/C(=O)O)cc1)C(=O)NCC(=O)O (stereo not drawn) |
| 6.3 | CCCCC(NC(=O)c1ccc(/C=C/C(=O)O)cc1)C(=O)NCc1ccccc1 (stereo not drawn) |
| 15 | CCC(NC(=O)c1ccc(/C=C/C(=O)O)cc1)C(=O)NCc1ccccc1 (stereo not drawn) |
